We go through 28 molecules from patent US20160287589A1, “SUBSTITUTED-IMIDAZOPYRIDAZINES” (BAYER PHARMA AKTIENGESELLSCHAFT, priority 2013, published 2016).

Experiment [1] has as its target T1, MKNK1 (Homo sapiens, UniProt Q9BUB5, T385D).
T1 construct: GST (N); purchased Carna Biosciences 02-145; host or cells: insect cells (baculovirus expression system)
Briefly: MKNK1 kinase high ATP assay (TR-FRET-based). It counts as biochemical. Conditions: 2 mM ATP, 15 min preincubation. Summed up:
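TR-FRET read-out (anti-phospho-S6 Ser236 antibody, Eu/XL665) of biotin-peptide phosphorylation (0.06 μM) at high ATP (2 mM final). Enzyme was GST-MKNK1 full length, T344D, pre-bound to compound for 15 min before a 30 min reaction at 22 °C, pH 7.5. Inhibition scaled between no-inhibitor (0%) and no-enzyme (100%) wells.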
Background: In TR-FRET formats the signal depends on donor and acceptor labels being close together.

Experiment [2] has as its target T1, MKNK1. Put plainly: MKNK1 kinase assay (MKNK1 TR-FRET assay). It counts as biochemical. Conditions: 10 μM ATP, 15 min preincubation.

T1 sequence (Q9BUB5 1-424 isoform Q9BUB5-2 T344D): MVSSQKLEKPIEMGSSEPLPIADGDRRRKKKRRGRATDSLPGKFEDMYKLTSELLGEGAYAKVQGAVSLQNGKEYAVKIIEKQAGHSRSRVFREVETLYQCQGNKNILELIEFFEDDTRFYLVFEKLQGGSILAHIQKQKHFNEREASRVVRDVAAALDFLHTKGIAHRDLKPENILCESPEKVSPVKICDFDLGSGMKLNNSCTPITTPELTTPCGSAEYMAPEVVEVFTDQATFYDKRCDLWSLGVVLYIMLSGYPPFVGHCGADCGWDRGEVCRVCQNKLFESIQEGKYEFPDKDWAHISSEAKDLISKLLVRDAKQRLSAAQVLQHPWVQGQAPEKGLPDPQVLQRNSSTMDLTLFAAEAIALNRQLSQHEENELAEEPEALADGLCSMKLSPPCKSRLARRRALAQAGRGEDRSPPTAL

Usually IC50 stands for the concentration that gives 50% inhibition. A lower IC50 goes with inhibition by little substance. On to `Cc1ccccc1C(=O)NCCOc1ccc2ncc(-c3cc4ccccc4o3)n2n1` [Example I-71, N-(2-{[3-(1-Benzofuran-2-yl)imidazo[1,2-b]-pyridazin-6-yl]oxy}ethyl)-2-methylbenzamide], for which the IC50 against MKNK1 [1] (Table 2a) came out at 14.4 nM; at MKNK1 [2] (Table 1a) it was 4.6 nM.

Turning to `CN(CCCN1CCCC1)c1nccc2oc(-c3cnc4ccc(O[C@H]5C[C@H](N)C5)nn34)cc12` [III-97, 2-{6-[(trans-3-Aminocyclobutyl)oxy]imidazo[1,2-b]pyridazin-3-yl}-N-methyl-N-[3-(pyrrolidin-1-yl)propyl]furo[3,2-c]pyridin-4-amine], the IC50 at MKNK1 [1] (Table 2c) was 21 nM; at MKNK1 [2] (Table 1c), 5.6 nM.

Consider `CN(C)C(=O)COc1ccc2ncc(-c3cc4ccccc4o3)n2n1` [Example I-36, 2-{[3-(1-Benzofuran-2-yl)imidazo[1,2-b]pyridazin-6-yl]oxy}-N,N-dimethyl-acetamide], for which the IC50 was found to be 56.2 nM at MKNK1 [1] (Table 2a) and 15.1 nM on MKNK1 [2] (Table 1a).

With `O=C(NCCOc1ccc2ncc(-c3cc4ccccc4o3)n2n1)c1ccco1` [Example I-77, N-(2-{[3-(1-Benzofuran-2-yl)imidazo[1,2-b]-pyridazin-6-yl]oxy}ethyl)furan-2-carboxamide], the IC50 on MKNK1 [1] (Table 2a) worked out at 22.2 nM; against MKNK1 [2] (Table 1a) it was 7.9 nM.

With `C[C@H]1CNCCN1c1cccc2oc(-c3cnc4ccc(OC[C@@H]5CCC(=O)N5)nn34)cc12` [II-38, (5S)-5-{[(3-{4-[(2S)-2-methylpiperazin-1-yl]-1-benzofuran-2-yl}imidazo[1,2-b]pyridazin-6-yl)oxy]methyl}pyrrolidin-2-one], the IC50 came out at 1.4 nM against MKNK1 [1] (Table 2b) and 4.6 nM on MKNK1 [2] (Table 1b).

On to `C[C@@H]1CN(c2cccc3oc(-c4cnc5ccc(OCC(F)(F)F)nn45)cc23)CCN1` [II-59, 3-{4-[(3R)-3-methylpiperazin-1-yl]-1-benzofuran-2-yl}-6-(2,2,2-trifluoroethoxy)im-idazo[1,2-b]pyridazine], for which the IC50 against MKNK1 [1] (Table 2b) was 2 nM; on MKNK1 [2] (Table 1b) it was 6.4 nM.

`COC[C@H]1CCCN1c1nccc2oc(-c3cnc4ccc(OC[C@@H]5COCCN5)nn34)cc12` [III-37, 3-{4-[(2R)-2-(Methoxymethyl)pyrrolidin-1-yl]furo[3,2-c]pyridin-2-yl}-6-[(3S)-morpholin-3-ylmethoxy]imidazo[1,2-b]pyridazine]: the results for the IC50 at MKNK1 [1] (Table 2c) and on MKNK1 [2] (Table 1c) were 11.1 nM and 1.1 nM, respectively.

Take `CS(=O)(=O)CCCOc1ccc2ncc(-c3cc4c(N5CCNCC5)cccc4o3)n2n1` [II-20, 6-[3-(Methylsulfonyl)propoxy]-3-[4-(piperazin-1-yl)-1-benzofuran-2-yl]imidazo-[1,2-b]pyridazine]: the IC50 against MKNK1 [1] (Table 2b) turned out to be 0.8 nM; against MKNK1 [2] (Table 1b) it was 0.5 nM.

As to `CC(=O)NC[C@@H](C)Oc1ccc2ncc(-c3cc4ccccc4o3)n2n1` [Example I-80, N-[(2R)-2-{[3-(1-Benzofuran-2-yl)imidazo[1,2-b]pyridazin-6-yl]oxy}-propyl]acetamide], the IC50 stood at 47.7 nM against MKNK1 [1] (Table 2a) and 24.5 nM at MKNK1 [2] (Table 1a).

`O=C(Cc1ccccc1)NCCOc1ccc2ncc(-c3cc4ccccc4o3)n2n1` [Example I-75, N-(2-{[3-(1-Benzofuran-2-yl)imidazo[1,2-b]-pyridazin-6-yl]oxy}ethyl)-2-phenylacetamide]: the values for the IC50 at MKNK1 [1] (Table 2a) and on MKNK1 [2] (Table 1a) were 17.7 nM and 6 nM, respectively.

Turning to `C[C@@H]1CN(c2nccc3oc(-c4cnc5ccc(OC[C@@H]6CCC(=O)N6)nn45)cc23)CCO1` [III-125, (5S)-5-{[(3-{4-[(2R)-2-methylmorpholin-4-yl]furo[3,2-c]pyridin-2-yl}imidazo[1,2-b]pyridazin-6-yl)oxy]methyl}pyrrolidin-2-one], the IC50 on MKNK1 [1] (Table 2c) came out at 7.1 nM; against MKNK1 [2] (Table 1c) it was 7.4 nM.

Turning to `CC(C)(C)N1CCN(c2nccc3oc(-c4cnc5ccc(OCCCS(C)(=O)=O)nn45)cc23)CC1` [III-48, 3-[4-(4-tert-Butylpiperazin-1-yl)furo[3,2-c]pyridin-2-yl]-6-[3-(methylsulfonyl)-propoxy]imidazo[1,2-b]pyridazine], the IC50 on MKNK1 [1] (Table 2c) is 32.1 nM; at MKNK1 [2] (Table 1c), 11.9 nM.

For `O=C1CNC[C@H](COc2ccc3ncc(-c4cc5c(N6CCOCC6)nccc5o4)n3n2)N1` [III-89, (6R)-6-[({3-[4-(Morpholin-4-yl)furo[3,2-c]pyridin-2-yl]imidazo[1,2-b]pyridazin-6-yl}oxy)methyl]piperazin-2-one], the IC50 on MKNK1 [1] (Table 2c) came out at 8 nM; at MKNK1 [2] (Table 1c), 2.9 nM.

In the case of `CS(=O)(=O)CCCOc1ccc2ncc(-c3cc4c(N5CCC(CO)CC5)nccc4o3)n2n1` [III-57, [1-(2-{6-[3-(Methylsulfonyl)propoxy]imidazo[1,2-b]pyridazin-3-yl}furo[3,2-c]pyridin-4-yl)piperidin-4-yl]methanol], the IC50 was determined as 3.6 nM against MKNK1 [1] (Table 2c) and 1.5 nM at MKNK1 [2] (Table 1c).

Turning to `O=C1CC[C@H](COc2ccc3ncc(-c4cc5c(N6CCNCC6)nccc5o4)n3n2)N1` [III-71, (5R)-5-[({3-[4-(Piperazin-1-yl)furo[3,2-c]pyridin-2-yl]imidazo[1,2-b]pyridazin-6-yl}oxy)methyl]pyrrolidin-2-one], the IC50 against MKNK1 [1] (Table 2c) amounted to 1.4 nM; against MKNK1 [2] (Table 1c), 2 nM.

For the molecule `C[C@H]1CNCCN1c1cccc2oc(-c3cnc4ccc(OCCCS(C)(=O)=O)nn34)cc12` [II-58, 3-{4-[(2S)-2-methylpiperazin-1-yl]-1-benzofuran-2-yl}-6-[3-(methylsulfonyl)propoxy]im-idazo[1,2-b]pyridazine], the IC50 worked out at 1.4 nM on MKNK1 [1] (Table 2b) and 2.6 nM on MKNK1 [2] (Table 1b).

`O=C1CCCC(COc2ccc3ncc(-c4cc5ccccc5o4)n3n2)N1` (centres unmarked) [Example I-8, 6-({[3-(1-Benzofuran-2-yl)imidazo[1,2-b]pyridazin-6-yl]oxy}methyl)piperidin-2-one]: the IC50 at MKNK1 [1] (Table 2a) is 9.3 nM; on MKNK1 [2] (Table 1a) it was 5.2 nM.

For the molecule `C[C@H](N)COc1ccc2ncc(-c3cc4c(N5CCO[C@@H](C)C5)cccc4o3)n2n1` [II-67, (2S)-1-[(3-{4-[(2S)-2-methylmorpholin-4-yl]-1-benzofuran-2-yl}imidazo[1,2-b]pyridazin-6-yl)oxy]propan-2-amine], the IC50 on MKNK1 [1] (Table 2b) amounted to 56.3 nM; against MKNK1 [2] (Table 1b), 23.5 nM.

Consider `CC(=O)N1CCC[C@H]1CCOc1ccc2ncc(-c3cc4cnccc4o3)n2n1` [IV-1, 1-[(2S)-2-(2-{[3-(Furo[3,2-c]pyridin-2-yl)imidazo[1,2-b]pyridazin-6-yl]oxy}ethyl)pyrrolidin-1-yl]ethanone], for which the IC50 came out at 12 nM on MKNK1 [1] (Table 2d) and 5 nM against MKNK1 [2] (Table 1d).

For `O=C1CC[C@H](COc2ccc3ncc(-c4cc5ccccc5o4)n3n2)N1` [Example I-9, (5R)-5-({[3-(1-Benzofuran-2-yl)imidazo[1,2-b]pyridazin-6-yl]oxy}methyl)-pyrrolidin-2-one], the results for the IC50 against MKNK1 [1] (Table 2a) and on MKNK1 [2] (Table 1a) were 9.6 nM and 3.3 nM, respectively.

Take `C[C@@H]1CN(c2nccc3oc(-c4cnc5ccc(OC[C@@H](C)N)nn45)cc23)CCO1` [III-121, (2R)-1-[(3-{4-[(2R)-2-methylmorpholin-4-yl]furo[3,2-c]pyridin-2-yl}imidazo[1,2-b]pyridazin-6-yl)oxy]propan-2-amine]: the half-maximal inhibitory concentration (IC50) against MKNK1 [1] (Table 2c) turned out to be 12.8 nM; against MKNK1 [2] (Table 1c), 11.6 nM.

Turning to `O=C(NCCOc1ccc2ncc(-c3cc4ccccc4o3)n2n1)C1CCC1` [Example I-68, N-(2-{[3-(1-Benzofuran-2-yl)imidazo[1,2-b]-pyridazin-6-yl]oxy}ethyl)cyclobutane-carboxamide], the IC50 against MKNK1 [1] (Table 2a) was determined as 20.6 nM; on MKNK1 [2] (Table 1a) it was 7.8 nM.

`C[C@@H]1COCCN1c1nccc2oc(-c3cnc4ccc(O[C@H]5C[C@H](N)C5)nn34)cc12` [III-107, trans-3-[(3-{4-[(3R)-3-Methylmorpholin-4-yl]furo[3,2-c]pyridin-2-yl}imidazo[1,2-b]pyridazin-6-yl)oxy]cyclobutanamine]: the IC50 against MKNK1 [1] (Table 2c) was determined as 11.8 nM; at MKNK1 [2] (Table 1c), 4.8 nM.

As for `C[C@H](N)COc1ccc2ncc(-c3cc4c(N5CCOC[C@H]5C)cccc4o3)n2n1` [II-57, (2S)-1-[(3-{4-[(3R)-3-methylmorpholin-4-yl]-1-benzofuran-2-yl}imidazo[1,2-b]pyridazin-6-yl)oxy]propan-2-amine], the IC50 stood at 75.1 nM against MKNK1 [1] (Table 2b) and 53.7 nM at MKNK1 [2] (Table 1b).

For `O=C1CNC[C@@H](COc2ccc3ncc(-c4cc5ccccc5o4)n3n2)N1` [Example I-29, (6S)-6-({[3-(1-Benzofuran-2-yl)imidazo[1,2-b]pyridazin-6-yl]oxy}methyl)-piperazin-2-one], the IC50 on MKNK1 [1] (Table 2a) stood at 34.1 nM; against MKNK1 [2] (Table 1a) it was 13.1 nM.

Take `COc1nccc2oc(-c3cnc4ccc(OCCC5CCC(=O)N5)nn34)cc12` (centres unmarked) [IV-2, 5-(2-{[3-(4-Methoxyfuro[3,2-c]pyridin-2-yl)imidazo[1,2-b]pyridazin-6-yl]oxy}-ethyl)pyrrolidin-2-one]: the IC50 against MKNK1 [1] (Table 2d) was 26 nM; at MKNK1 [2] (Table 1d), 11 nM.

`C[C@@H]1CN(c2cccc3oc(-c4cnc5ccc(OC[C@@H]6CCC(=O)N6)nn45)cc23)CCO1` [II-72, (5S)-5-{[(3-{4-[(2R)-2-methylmorpholin-4-yl]-1-benzofuran-2-yl}imidazo[1,2-b]pyridazin-6-yl)oxy]methyl}pyrrolidin-2-one]: the results for the IC50 on MKNK1 [1] (Table 2b) and at MKNK1 [2] (Table 1b) were 33 nM and 15.7 nM, respectively.

For `O=C(c1ccccc1)N1CCOC(COc2ccc3ncc(-c4cc5ccccc5o4)n3n2)C1` (centres unmarked) [Example I-16, [2-({[3-(1-benzofuran-2-yl)imidazo[1,2-b]pyridazin-6-yl]oxy}methyl)morpholin-4-yl](phenyl)methanone], the results for the IC50 against MKNK1 [1] (Table 2a) and on MKNK1 [2] (Table 1a) were 13.3 nM and 4.7 nM, respectively.
